According to ChEMBL document CHEMBL1131991, “Discovery of CP-199,330 and CP-199,331: two potent and orally efficacious cysteinyl LT1 receptor antagonists devoid of liver toxicity” (Bioorg Med Chem Lett, 1999):

How the values were obtained:
[1] = Compound was evaluated for terminal half life in monkey; type: ADME; details: cercopithecidae, in vivo
Rattus norvegicus = species: Rattus norvegicus; assay: Compound was evaluated for Hepatic clearance in rat; type: ADME, organism-based, Liver; details: in vivo
[2] = Compound was evaluated for Hepatic clearance in monkey; type: ADME, organism-based, Liver; details: cercopithecidae, in vivo
[3] = Oral bioavailability in monkey; type: ADME, organism-based; details: cercopithecidae, in vivo
[4] = Oral bioavailability in rat; type: ADME, organism-based; details: in vivo
[5] = Compound was evaluated for terminal half life in rat; type: ADME, organism-based; details: in vivo
[6] = target: T1, Cysteinyl leukotriene receptor 1 (Cavia porcellus, UniProt Q2NNR5); assay: In vitro binding of Cysteinyl leukotriene receptor 1 to guinea pig lung membranes; type: tissue-based, Membrane
T1 sequence (Q2NNR5 whole entry): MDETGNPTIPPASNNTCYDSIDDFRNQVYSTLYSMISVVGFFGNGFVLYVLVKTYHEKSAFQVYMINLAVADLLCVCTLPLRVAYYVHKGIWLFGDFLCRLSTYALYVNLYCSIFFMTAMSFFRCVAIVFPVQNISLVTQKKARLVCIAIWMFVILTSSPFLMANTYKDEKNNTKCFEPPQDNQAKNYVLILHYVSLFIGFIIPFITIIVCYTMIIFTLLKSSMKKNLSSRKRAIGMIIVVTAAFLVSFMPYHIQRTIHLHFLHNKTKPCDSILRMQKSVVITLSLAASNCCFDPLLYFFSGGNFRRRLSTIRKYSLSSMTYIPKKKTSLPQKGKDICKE

Cavia porcellus [7] = assay: Compound was evaluated in vivo for antigen induced airway obstruction in guinea pig (OA) at 1.0 hour after oral administration; type: functional
Cavia porcellus [8] = assay: Compound was evaluated in vivo for cysLT1 receptor induced airway obstruction in guinea pig (OA) at 1.0 hour after oral administration; type: functional
U-937 = assay: In vitro blocking of extracellular calcium mobilization in human U937 cells; type: functional, cell-based
Cavia porcellus [9] = assay: Compound was evaluated in vivo for cysLT1 receptor induced airway obstruction in guinea pig (OA) at 1.0 hour after oral administration.; type: functional
Cavia porcellus [10] = assay: Compound was evaluated in vivo for antigen induced airway obstruction in guinea pig (OA) at 2.0 hour after oral administration.; type: functional
Cavia porcellus [11] = assay: Compound was evaluated in vivo for cysLT1 receptor induced airway obstruction in guinea pig (OA) at 2.0 hour after oral administration.; type: functional

SMILES	half-life [1] [min]	Clp (Rattus norvegicus) [mL/min/kg]	Clp [2] [mL/min/kg]	bioavailability [3] [%]	bioavailability [4] [%]	half-life [5] [min]	Ki [6] [nM]	ED50 (Cavia porcellus [7]) [mg/kg]	ED50 (Cavia porcellus [8]) [mg/kg]	IC50 (U-937) [nM]	ED50 (Cavia porcellus [9]) [mg/kg]	ED50 (Cavia porcellus [10]) [mg/kg]	ED50 (Cavia porcellus [11]) [mg/kg]
COc1ccc(NS(=O)(=O)C(F)(F)F)cc1C[C@@H]1COc2ccc(OCc3ccc4ccc(Cl)cc4n3)cc2[C@@H]1O	126	8.9	6.5	100	53	48	0.6	0.46	0.12	0.7	–	–	–
COc1ccc(NS(=O)(=O)C(F)(F)F)cc1C[C@@H]1COc2ccc(OCc3nc4cc(F)c(F)cc4s3)cc2[C@@H]1O	564	8.3	4.2	72	46	528	0.4	0.52	–	0.3	0.08	–	–
O=C(Nc1cccc2c(=O)cc(-c3nnn[nH]3)oc12)c1ccc(OCCCCc2ccccc2)cc1	–	–	–	–	–	–	–	1.5	–	–	–	–	–
COc1cc(C(=O)NS(=O)(=O)c2ccccc2C)ccc1Cc1cn(C)c2ccc(NC(=O)OC3CCCC3)cc12 [ZAFIRLUKAST]	–	–	–	–	–	–	–	–	–	–	–	0.9	0.52
